Read-outs that look alike come from different tables or passages of the source.
Key:
[1] = tested on: Escherichia coli (ATCC 25922); parameters: method as in Alsaeedi et al., [2015]; settings: diffusion method; ref Alsaeedi et al., [2015]; cited from earlier work
[2] = tested on: Pseudomonas aeruginosa (ATCC 27853); parameters: method as in Alsaeedi et al., [2015]; settings: diffusion method; ref Alsaeedi et al., [2015]; cited from earlier work
[3] = tested on: Candida albicans (ATCC 10231); parameters: method as in Alsaeedi et al., [2015]; settings: diffusion method; ref Alsaeedi et al., [2015]; cited from earlier work
[4] = tested on: L. donovani strain 1S promastigotes; assay: Antipromastigote assay (resazurin); format: cell-based; settings: L. donovani 1S, read-out: 1S IC50 ± SD, Promastigote
Procedure: (§1) The antipromastigote activity of synthesized compounds was evaluated as described previously by Mangwegape et al. ([2021]) using three strains of L. donovani (1S (MHOM/SD/62/1S) and 9515 (MHOM/IN/95/9515)) and L. major (IR‐173 [MHOM/IR/−173]). The assay method is available in the Supinfo S1.
(§2) The antipromastigote activity of synthesized compounds was evaluated using a modified, resazurin-based method of Kulshrestha et al. ^2 and Siqueira-Neto et al. ^3 and on three Leishmania strains. Leishmania donovani (strains 1S (MHOM/SD/62/1S) and 9515 (MHOM/IN/95/9515)) and L. major (strain IR-173 (MHOM/IR/-173)) promastigotes were cultured in M199 with Hank's salts and 0.68 mM L-glutamine (Sigma Aldrich) supplemented with 50 U/mL Penicillin/Streptomycin solution (Lonza), 4.2 mM sodium bicarbonate, 25 mM Hepes, 10% fetal bovine serum, 0.25% hemin, 0.1% biotin, and 10 mM adenine (Sigma Aldrich) and the pH adjusted to 7.3 – 7.4. The promastigotes were maintained at 25 °C.
(§3) Amphothericin B (10 μM) served as the standard drug and growth medium without parasites served as the blank. The plates were incubated for 48 hours at 25 °C in humidified atmosphere. After incubation, 50 μL of resazurin solution (0.01% in PBS) was added to each well and the plates were further incubated at 25 °C in the dark for 24 hours. Absorbance was measured at 570 nm and 600 nm using the Thermofisher Scientific GO Multiscan plate reader. Data analysis was performed for each biological replicate using SkanIt 4.0 Research Edition software. Background absorbance of resazurin (600 nm) was subtracted from the absorbance values of resorufin (570 nm). The mean absorbance calculated and the percentage growth inhibition and cell viability were determined by the following equations: […]
(§4) The IC50 and Z-score were determined for each compound’s three biological replicates using the cell viability % values and GraphPad Prism 5. The mean IC50 of the biological replicates with standard deviation (SD) served as the final IC50 of each compound.

[5] = tested on: L. donovani strain 9515 promastigotes; assay: Antipromastigote assay (resazurin); format: cell-based; settings: L. donovani 9515, read-out: 9515 IC50 ± SD, Promastigote
Procedure: as §1, §2, §3, §4

[6] = tested on: L. major strain IR‐173 promastigotes; assay: Antipromastigote assay (resazurin); format: cell-based; settings: L. major IR‐173, read-out: Antileishmanial activity, IC50 ± SD, Promastigote
Procedure: as §1, §2, §3, §4

[7] = tested on: Bacillus subtilis (ATCC 6633); parameters: method as in Alsaeedi et al., [2015]; settings: diffusion method; ref Alsaeedi et al., [2015]; cited from earlier work
[8] = tested on: Salmonella susi (ATTC 13070); parameters: method as in Alsaeedi et al., [2015]; settings: diffusion method; ref Alsaeedi et al., [2015]; cited from earlier work
[9] = tested on: L. donovani strains (1S and 9515) amastigotes; assay: Anti-amastigote selectivity, strain not separated; format: cell-based; settings: strain not given
Procedure: The activities of synthesized compounds against the intramacrophage parasites of the three Leishmania strains were evaluated using a modified, resazurin‐based method (Jain et al., [2012]; Njanpa et al., [2021]). Suspension cultures of human acute monocytic leukemia (THP‐1) cells were maintained in RPMI‐1640 medium (Sigma Aldrich) supplemented with 10% FBS and 1% penicillin–streptomycin, at 37°C and 5% CO2 in a humidified atmosphere. Duplicate 96‐well plates (for respective anti‐amastigote and cytotoxicity assays) were seeded with 200 μl of a 2.5 × 10^5 cells/ml suspension treated with 25 ng/ml phorbol 12‐myristate 13‐acetate (PMA), followed by 48‐h incubation to promote differentiation into adherent macrophages.
For the anti‐amastigote assay, differentiated plates were carefully washed with PBS, followed by the addition of 200 μl of stationary phase promastigotes in RPMI 1640 medium with 2% FBS. An MOI of 30:1 was used for all three Leishmania strains. The parasite‐treated plates were incubated for 24 h at 32°C (L. major) or 37°C (L. donovani) and 5% CO2 to promote infection of the macrophages. […] Blanks were represented by growth medium without cells, as well as parasite‐free THP‐1 cells. The treated plates were incubated for 72 h.
After incubation, the plates were gently washed three times with PBS to remove any remaining extracellular parasites. The wells were then treated with 20 μl of 0.05% sodium dodecyl sulfate in PBS for 30 s to lyse the host macrophages. Lysis was terminated by adding 180 μl promastigote growth medium with 10% FBS. To initiate the resazurin assay, 10 μl of resazurin solution (0.025% in PBS) was added to all wells and the plates were incubated for 24 h at 32°C (L. major) or 37°C (L. donovani) and 5% CO2. Absorbance measurements, calculations, and IC50 determinations were performed as described for the antipromastigote assay (Supinfo S1).

THP‐1 cells = assay: Cytotoxicity on differentiated host THP-1 macrophages, resazurin assay; format: cell-based, human; settings: differentiated THP-1 macrophages, 72 h; read-out: Cytotoxicity, IC50 ± SD, THP‐1
Procedure: Duplicate 96‐well plates (for respective anti‐amastigote and cytotoxicity assays) were seeded with 200 μl of a 2.5 × 10^5 cells/ml suspension treated with 25 ng/ml phorbol 12‐myristate 13‐acetate (PMA), followed by 48‐h incubation to promote differentiation into adherent macrophages.
Cytotoxicity of the compounds on the differentiated host THP-1 cells were also evaluated. As mentioned, duplicate plates of differentiated THP-1 cells were prepared during the anti-amastigote assay. These plates were incubated for 72 hours to differentiate, instead of replacing the growth medium with parasite-containing medium after 48 hours. […] Blanks were growth medium without cells. The treated plates were incubated for 72 hours, followed by the addition of 50 μL of resazurin solution (0.01% in PBS) to each well and 24-hour incubation.

Vero cells = assay: in vitro
Procedure: The assay method is available in the Supinfo S1.
African green monkey kidney epithelial (Vero) cells (Cellonex, South Africa) were cultured and the basal cytotoxicity of the synthesized compounds with antileishmanial and/or anticancer activity was evaluated using the resazurin assay, as described in Mangwegape et al. ^4 Emetine served as the standard cytotoxic drug. Further use of reference drugs, controls, data analysis, calculations and IC50 determinations were identical to that of the antileishmanial assay.

Row | Compound | IC50 ([4]; Leishmania donovani) [µM] | IC50 ([5]; Leishmania donovani) [µM] | IC50 ([6]; Leishmania major) [µM] | selectivity index (SI) relative to the host THP‐1 cells [9] | selectivity index (SI) toward Vero cells [9] | further results
1 | Cc1ccc(S(=O)(=O)N/N=C/c2ccc([N+](=O)[O-])o2)cc1 [2c, (E)-4-Methyl-N'-[(5-nitrofuran-2-yl)methylene]benzenesulfonohydrazide] | > 10 | > 10 | > 10 |  |  | antimicrobial activity (inhibition zone) [1]: no activity; antimicrobial activity (inhibition zone) [2]: no activity; antimicrobial activity (inhibition zone) [3]: no activity; antimicrobial activity (inhibition zone) [7]: no activity; inhibition zone [8]: 20 mm
2 | CC(C)c1ccc(S(=O)(=O)N/N=C/c2ccc([N+](=O)[O-])o2)cc1 [2d, (E)-4-Isopropyl-N'-[(5-nitrofuran-2-yl)methylene]benzenesulfonohydrazide] | 5 ± 1.32 | 3.62 ± 0.65 | 4.71 ± 0.33 |  |  | 
3 | CC(C)(C)c1ccc(S(=O)(=O)N/N=C/c2ccc([N+](=O)[O-])o2)cc1 [2f, (E)-4-(tert-Butyl)-N'-[(5-nitrofuran-2-yl)methylene]benzenesulfonohydrazide] | 5.29 ± 0.69 | 3.5 ± 0.58 | 6.93 ± 0.83 | > 10 | < 10 | 
4 | O=[N+]([O-])c1ccc(/C=N/NS(=O)(=O)c2ccc(-c3ccccc3)cc2)o1 [2h, (E)-N'-[(5-Nitrofuran-2-yl)methylene]-(1,1'-biphenyl)-4-sulfonohydrazide] | 1.45 ± 0.16 | 1.53 ± 0.14 | 2.49 ± 0.51 | > 10 | < 10 | 
5 | O=[N+]([O-])c1ccc(/C=N/NS(=O)(=O)c2cccc3c2OCCO3)o1 [2l, (E)-N'-[(5-Nitrofuran-2-yl)methylene]-2,3-dihydrobenzo[b][1,4]dioxine-5-sulfonohydrazide] | 9.24 ± 1.32 | 7.25 ± 0.11 | 8.1 ± 0.03 | > 10 | < 10 | 
6 | O=Cc1ccc([N+](=O)[O-])o1 [NFA, 5‐nitro‐2‐furaldehyde, reference compound] | 6.39 ± 0.26 | > 10 | 7.28 ± 0.1 |  |  | IC50 (THP‐1 cells): 80.9 ± 6.37 µM
7 | O=C1CN(/N=C/c2ccc([N+](=O)[O-])o2)C(=O)N1 [NFT, nitrofurantoin, reference compound] | > 10 | > 10 | > 10 |  |  | 
8 | O=C(N/N=C/c1ccc([N+](=O)[O-])o1)c1ccc(O)cc1 [NFX, Nifuroxazide, reference compound] | > 10 | > 10 | > 10 |  |  | 
9 | (E)-2,4,6-Trimethyl-N'-[(5-nitrofuran-2-yl)methylene]benzenesulfonohydrazide [2e] |  |  |  | > 10 | < 10 | IC50 (Vero cells): 39.8 ± 5.89 µM; IC50 (THP‐1 cells): > 100 µM; IC50 [4]: 3.04 ± 0.04 µM; IC50 [5]: 3.97 ± 1.08 µM; IC50 [6]: 7.09 ± 0.74 µM
